In US8952157B2, “Apoptosis-inducing agents for the treatment of cancer and immune and autoimmune diseases” (AbbVie Inc., priority 2008, dated 2015):

molecular target: GST-Bcl-2 (Homo sapiens (Human), UniProt P10415); assay: Time Resolved-Fluorescence Resonance Energy Transfer (TR-FRET) Bcl-2 binding assay; settings: not given
How it was run: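 Competition TR-FRET: GST-Bcl-2 with fluorescent Bak peptide probe and Tb-anti-GST antibody, compounds serially diluted from 50 μM (2× start, 10% DMSO).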

GST-Bcl-2, sequence (P10415 whole entry): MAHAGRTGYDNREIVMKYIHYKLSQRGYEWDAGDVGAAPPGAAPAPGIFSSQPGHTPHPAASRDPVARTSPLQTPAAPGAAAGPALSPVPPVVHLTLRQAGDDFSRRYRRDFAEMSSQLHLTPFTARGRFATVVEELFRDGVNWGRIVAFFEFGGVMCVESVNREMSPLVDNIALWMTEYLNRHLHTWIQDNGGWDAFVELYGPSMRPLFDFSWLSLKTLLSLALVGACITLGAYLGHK

Question: `CC1(C)CCC(CN2CCN(c3ccc(C(=O)NS(=O)(=O)c4ccc(N[C@H]5CC[C@H](N6CCOCC6)CC5)c([N+](=O)[O-])c4)c(Oc4cccc(Cl)c4)c3)CC2)=C(c2ccc(Cl)cc2)C1` [Example 205, Trans-2-(3-chlorophenoxy)-4-(4-{[2-(4-chlorophenyl)-4,4-dimethylcyclohex-1-en-1-yl]methyl}piperazin-1-yl)-N-({4-[(4-morpholin-4-ylcyclohexyl)amino]-3-nitrophenyl}sulfonyl)benzamide] was tested. Which Ki did it give?
Answer: The Ki was 0.153 nM.

same assay, conditions: GST-Bcl-2 1 nM, F-Bak peptide probe 100 nM, Tb-anti-GST antibody 1 nM; Ki by Wang's equation

Question: For `CC1(C)CCC(CN2CCN(c3ccc(C(=O)NS(=O)(=O)c4cnc(OCC5(F)CCOCC5)c(Cl)c4)c(Oc4cnc(N)c(Cl)c4)c3)CC2)=C(c2ccc(Cl)cc2)C1` [Example 349, 2-[(6-amino-5-chloropyridin-3-yl)oxy]-N-({5-chloro-6-[(4-fluorotetrahydro-2H-pyran-4-yl)methoxy]pyridin-3-yl}sulfonyl)-4-(4-{[2-(4-chlorophenyl)-4,4-dimethylcyclohex-1-en-1-yl]methyl}piperazin-1-yl)benzamide], which Ki is on record?
Answer: The Ki was 0.019 nM.

Question: With `CC1(C)CCC(CN2CCN(c3ccc(C(=O)NS(=O)(=O)c4ccc(NC5CCN(C6CC6)CC5)c([N+](=O)[O-])c4)c(Oc4cccc(F)c4)c3)CC2)=C(c2ccc(Cl)cc2)C1` [Example 132, 4-(4-{[2-(4-chlorophenyl)-4,4-dimethylcyclohex-1-en-1-yl]methyl}piperazin-1-yl)-N-({4-[(1-cyclopropylpiperidin-4-yl)amino]-3-nitrophenyl}sulfonyl)-2-(3-fluorophenoxy)benzamide] as the compound, how does the Ki read?
Answer: Its Ki is 0.211 nM.

Question: How did the Ki turn out when `O=C(NS(=O)(=O)c1ccc(NCCCN2CCOCC2)c([N+](=O)[O-])c1)c1ccc(N2CCN(Cc3ccccc3-c3ccc(Cl)cc3)CC2)cc1Oc1ccc(Cl)cc1` [Example 13, 4-(4-((4′-chloro-1,1′-biphenyl-2-yl)methyl)piperazin-1-yl)-2-(4-chlorophenoxy)-N-((4-((3-morpholin-4-ylpropyl)amino)-3-nitrophenyl)sulfonyl)benzamide] was run?
Answer: The Ki was 1.62 nM.

Question: Which Ki does the source give for `CC1(C)CCC(CN2CCN(c3ccc(C(=O)NS(=O)(=O)c4ccc(NC5CCN(C6CCOCC6)CC5)c([N+](=O)[O-])c4)c(Oc4cccc(Cl)c4)c3)CC2)=C(c2ccc(Cl)cc2)C1` [Example 127, 2-(3-chlorophenoxy)-4-(4-{[2-(4-chlorophenyl)-4,4-dimethylcyclohex-1-en-1-yl]methyl}piperazin-1-yl)-N-({3-nitro-4-[(1-tetrahydro-2H-pyran-4-ylpiperidin-4-yl)amino]phenyl}sulfonyl)benzamide] here?
Answer: Its Ki is 0.03 nM.

Question: How did the Ki turn out when `CC1(C)CCC(CN2CCN(c3ccc(C(=O)NS(=O)(=O)c4ccc(OCC5(F)CCOCC5)c([N+](=O)[O-])c4)c(Oc4cc5cc[nH]c5cc4F)c3)CC2)=C(c2ccc(Cl)cc2)C1` [Example 296, 4-(4-{[2-(4-chlorophenyl)-4,4-dimethylcyclohex-1-en-1-yl]methyl}piperazin-1-yl)-2-[(6-fluoro-1H-indol-5-yl)oxy]-N-({4-[(4-fluorotetrahydro-2H-pyran-4-yl)methoxy]-3-nitrophenyl}sulfonyl)benzamide] was run?
Answer: The Ki was under 0.01 nM.

Question: `CC1(C)CCC(CN2CCN(c3ccc(C(=O)NS(=O)(=O)c4ccc(NC5CCN(C6CCOCC6)CC5)c([N+](=O)[O-])c4)c(Oc4ccnc(NC(=O)OC(C)(C)C)c4)c3)CC2)=C(c2ccc(Cl)cc2)C1` [Example 271, tert-butyl 4-(5-(4-{[2-(4-chlorophenyl)-4,4-dimethylcyclohex-1-en-1-yl]methyl}piperazin-1-yl)-2-{[({3-nitro-4-[(1-tetrahydro-2H-pyran-4-ylpiperidin-4-yl)amino]phenyl}sulfonyl)amino]carbonyl}phenoxy)pyridin-2-ylcarbamate] was tested. Which Ki did it give?
Answer: Its Ki is 1.91 nM.

Question: For `CC1(C)CCC(CN2CCN(c3ccc(C(=O)NS(=O)(=O)c4ccc(NCC5CCOCC5)c([N+](=O)[O-])c4)c(Oc4ccc(O)nc4)c3)CC2)=C(c2ccc(Cl)cc2)C1` [Example 283, 4-(4-{[2-(4-chlorophenyl)-4,4-dimethylcyclohex-1-en-1-yl]methyl}piperazin-1-yl)-2-[(6-hydroxypyridin-3-yl)oxy]-N-({3-nitro-4-[(tetrahydro-2H-pyran-4-ylmethyl)amino]phenyl}sulfonyl)benzamide], which Ki is on record?
Answer: The Ki was 17.2 nM.

Question: For `Cc1nc(C)c(-c2cccc(Oc3cc(N4CCN(Cc5ccccc5-c5ccc(Cl)cc5)CC4)ccc3C(=O)NS(=O)(=O)c3ccc(NCCCN4CCOCC4)c([N+](=O)[O-])c3)c2)s1` [Example 33, 4-(4-((4′-chloro-1,1′-biphenyl-2-yl)methyl)piperazin-1-yl)-2-(3-(2,4-dimethyl-1,3-thiazol-5-yl)phenoxy)-N-((4-((3-morpholin-4-ylpropyl)amino)-3-nitrophenyl)sulfonyl)benzamide], which Ki is on record?
Answer: The Ki was 7.17 nM.

Question: With `CC1(C)CCC(CN2CCN(c3ccc(C(=O)NS(=O)(=O)c4ccc(NCCCN5CCNC(=O)C5)c([N+](=O)[O-])c4)c(Oc4cc(F)cc5[nH]ccc45)c3)CC2)=C(c2ccc(Cl)cc2)C1` [Example 257, 4-(4-{[2-(4-chlorophenyl)-4,4-dimethylcyclohex-1-en-1-yl]methyl}piperazin-1-yl)-2-[(6-fluoro-1H-indol-4-yl)oxy]-N-[(3-nitro-4-{[3-(3-oxopiperazin-1-yl)propyl]amino}phenyl)sulfonyl]benzamide] as the compound, how does the Ki read?
Answer: Its Ki is 0.097 nM.

Question: Which Ki does the source give for `O=C(NS(=O)(=O)c1ccc(NCCCN2CCOCC2)c([N+](=O)[O-])c1)c1ccc(N2CCN(Cc3ccccc3-c3ccc(Cl)cc3)CC2)cc1Oc1cccc(OCc2ccccc2)c1` [Example 93, 2-(3-(benzyloxy)phenoxy)-4-(4-((4′-chloro-1,1′-biphenyl-2-yl)methyl)piperazin-1-yl)-N-((4-((3-morpholin-4-ylpropyl)amino)-3-nitrophenyl)sulfonyl)benzamide] here?
Answer: Its Ki is 16.8 nM.

Question: How did the Ki turn out when `CN1CCC(Nc2ccc(S(=O)(=O)NC(=O)c3ccc(N4CCN(CC5=C(c6ccc(Cl)cc6)CC(C)(C)CC5)CC4)cc3Oc3cccc4c3CC(=O)N4)cc2[N+](=O)[O-])CC1` [Example 288, 4-(4-{[2-(4-chlorophenyl)-4,4-dimethylcyclohex-1-en-1-yl]methyl}piperazin-1-yl)-N-({4-[(1-methylpiperidin-4-yl)amino]-3-nitrophenyl}sulfonyl)-2-[(2-oxo-2,3-dihydro-1H-indol-4-yl)oxy]benzamide] was run?
Answer: The Ki was 0.017 nM.

Question: With `CC1(C)CCC(CN2CCN(c3ccc(C(=O)NS(=O)(=O)c4ccc(NCC5CCOCC5)c([N+](=O)[O-])c4)c(Oc4cncc(NC(=O)OC(C)(C)C)c4)c3)CC2)=C(c2ccc(Cl)cc2)C1` [Example 278, tert-butyl 5-(5-(4-{[2-(4-chlorophenyl)-4,4-dimethylcyclohex-1-en-1-yl]methyl}piperazin-1-yl)-2-{[({3-nitro-4-[(tetrahydro-2H-pyran-4-ylmethyl)amino]phenyl}sulfonyl)amino]carbonyl}phenoxy)pyridin-3-ylcarbamate] as the compound, how does the Ki read?
Answer: The Ki was 40 nM.

Question: How did the Ki turn out when `CC1(C)CCC(CN2CCN(c3ccc(C(=O)NS(=O)(=O)c4ccc(NCC5CCC(O)CC5)c([N+](=O)[O-])c4)c(Oc4cnc(N)c(Cl)c4)c3)CC2)=C(c2ccc(Cl)cc2)C1` (centres unmarked) [Example 386, 2-[(6-amino-5-chloropyridin-3-yl)oxy]-4-(4-{[2-(4-chlorophenyl)-4,4-dimethylcyclohex-1-en-1-yl]methyl}piperazin-1-yl)-N-[(4-{[(4-hydroxycyclohexyl)methyl]amino}-3-nitrophenyl)sulfonyl]benzamide] was run?
Answer: The Ki was under 0.01 nM.

Question: For `CC1(C)CCC(CN2CCN(c3ccc(C(=O)NS(=O)(=O)c4ccc(NC5CCN(C6CCOCC6)CC5)c([N+](=O)[O-])c4)c(Oc4ccc(O)cc4Cl)c3)CC2)=C(c2ccc(Cl)cc2)C1` [Example 216, 2-(2-chloro-4-hydroxyphenoxy)-4-(4-{[2-(4-chlorophenyl)-4,4-dimethylcyclohex-1-en-1-yl]methyl}piperazin-1-yl)-N-({3-nitro-4-[(1-tetrahydro-2H-pyran-4-ylpiperidin-4-yl)amino]phenyl}sulfonyl)benzamide], which Ki is on record?
Answer: The Ki was 0.027 nM.

Question: Which Ki does the source give for `CN1CCC(Nc2ccc(S(=O)(=O)NC(=O)c3ccc(N4CCN(CC5=C(c6ccc(Cl)cc6)CC(C)(C)CC5)CC4)cc3Oc3cccc(CO)c3)cc2[N+](=O)[O-])CC1` [Example 167, 4-(4-{[2-(4-chlorophenyl)-4,4-dimethylcyclohex-1-en-1-yl]methyl}piperazin-1-yl)-2-[3-(hydroxymethyl)phenoxy]-N-({4-[(1-methylpiperidin-4-yl)amino]-3-nitrophenyl}sulfonyl)benzamide] here?
Answer: The Ki was 1.34 nM.

Question: Which Ki does the source give for `C=CCN1CCC(Nc2ccc(S(=O)(=O)NC(=O)c3ccc(N4CCN(CC5=C(c6ccc(Cl)cc6)CC(C)(C)CC5)CC4)cc3Oc3cccc(F)c3F)cc2[N+](=O)[O-])CC1` [Example 146, N-({4-[(1-allylpiperidin-4-yl)amino]-3-nitrophenyl}sulfonyl)-4-(4-{[2-(4-chlorophenyl)-4,4-dimethylcyclohex-1-en-1-yl]methyl}piperazin-1-yl)-2-(2,3-difluorophenoxy)benzamide] here?
Answer: Its Ki is 0.04 nM.

Question: With `CN1CCN(Nc2ccc(S(=O)(=O)NC(=O)c3ccc(N4CCN(CC5=C(c6ccc(Cl)cc6)CC(C)(C)CC5)CC4)cc3Oc3ccc(O)cc3Cl)cc2[N+](=O)[O-])CC1` [Example 208, 2-(2-chloro-4-hydroxyphenoxy)-4-(4-{[2-(4-chlorophenyl)-4,4-dimethylcyclohex-1-en-1-yl]methyl}piperazin-1-yl)-N-({4-[(4-methylpiperazin-1-yl)amino]-3-nitrophenyl}sulfonyl)benzamide] as the compound, how does the Ki read?
Answer: The Ki was 0.261 nM.

Question: With `CN1CCC(Nc2ccc(S(=O)(=O)NC(=O)c3ccc(N4CCN(CC5=C(c6ccc(Cl)cc6)CC(C)(C)CC5)CC4)cc3Oc3c(F)cccc3Cl)cc2[N+](=O)[O-])CC1` [Example 151, 2-(2-chloro-6-fluorophenoxy)-4-(4-{[2-(4-chlorophenyl)-4,4-dimethylcyclohex-1-en-1-yl]methyl}piperazin-1-yl)-N-({4-[(1-methylpiperidin-4-yl)amino]-3-nitrophenyl}sulfonyl)benzamide] as the compound, how does the Ki read?
Answer: The Ki was 6.94 nM.

Question: Which Ki does the source give for `CC(C)(C)OC(=O)Nc1ccc(Oc2cc(N3CCN(Cc4ccccc4-c4ccc(Cl)cc4)CC3)ccc2C(=O)NS(=O)(=O)c2ccc(NCC3CCOCC3)c([N+](=O)[O-])c2)cc1` [Example 83, tert-butyl 4-(5-(4-((4′-chloro-1,1′-biphenyl-2-yl)methyl)piperazin-1-yl)-2-((((3-nitro-4-((tetrahydro-2H-pyran-4-ylmethyl)amino)phenyl)sulfonyl)amino)carbonyl)phenoxy)phenylcarbamate] here?
Answer: The Ki was over 1200 nM.
